From patent publication US10729130B2, “Nematicidal compositions and methods of using them” (Eden Research plc, priority 2004, dated 2020)

Tests used:
Citrus nematodes = assay: Nematicidal effects of citral in soil, Citrus nematodes; assay type: in vivo, citrus nematode
Protocol: Methodology: Nematodes used for the analysis originated from commercial agricultural crop soils. Species of nematode included root-knot and citrus. Prior to commencement of each study the nematodes were counted and evaluated for viability. In each experiment soil samples were infected with only one species of nematode. Three measured quantities of soil (250 g) were placed into large PVC plastic containers.
Soil moisture was assessed by weighing a soil sample and then drying the sample in a drying oven. Soil moisture content was confirmed using a “Hydroscout” instrument. In all cases the moisture content measured by both methods was within the resolution of the instruments. By determining the water content of the soil it was possible to calculate the volume of terpene solution which would be diluted when mixed with the soil.
These dilutions were by volume not the more commonly used mass ratios. The reason for using volume dilutions was simply one of convenience enabling the use of a micropipette or cylinder to measure the terpene. The mass ratio of the ‘in soil’ and ‘in water’ solution could be simply calculated by multiplying the ppm of terpene by it's density (0.92 g/ml).
The terpene solution was added to each test tube containing a weighed sample of nematode infected soil. The terpene solution and soil were mixed by inverting the test tube several times. The test tubes containing the soil and terpene solution were left to stand in racks in the laboratory for 48 hours-72 hours depending on the survival of the untreated nematodes. In each experiment a control group was treated with distilled water. The % mortality (kill) rates in the treatment groups was compared with the control population.
The nematodes were extracted by “Sieving & mist extraction” (Ayoub, S. M. 1977) prior to being counted.
Criteria for Evaluation: Nematode counts were performed to determine the proportion of nematodes which survived and were killed in each treatment group.
The results are shown below on Table 17 to 19.

Root Knot nematodes = assay: Nematicidal effects of citral in soil, Root Knot nematodes; assay type: in vivo, root-knot nematode
Protocol: Methodology: Nematodes used for the analysis originated from commercial agricultural crop soils. Species of nematode included root-knot and citrus. Prior to commencement of each study the nematodes were counted and evaluated for viability. In each experiment soil samples were infected with only one species of nematode. Three measured quantities of soil (250 g) were placed into large PVC plastic containers. Soil moisture was assessed by weighing a soil sample and then drying the sample in a drying oven. Soil moisture content was confirmed using a “Hydroscout” instrument. In all cases the moisture content measured by both methods was within the resolution of the instruments. By determining the water content of the soil it was possible to calculate the volume of terpene solution which would be diluted when mixed with the soil. […] These dilutions were by volume not the more commonly used mass ratios. The reason for using volume dilutions was simply one of convenience enabling the use of a micropipette or cylinder to measure the terpene. The mass ratio of the ‘in soil’ and ‘in water’ solution could be simply calculated by multiplying the ppm of terpene by it's density (0.92 g/ml). The terpene solution was added to each test tube containing a weighed sample of nematode infected soil. The terpene solution and soil were mixed by inverting the test tube several times. […] In each experiment a control group was treated with distilled water. The % mortality (kill) rates in the treatment groups was compared with the control population. The nematodes were extracted by “Sieving & mist extraction” (Ayoub, S. M. 1977) prior to being counted. Criteria for Evaluation: Nematode counts were performed to determine the proportion of nematodes which survived and were killed in each treatment group. […] The results are shown below on Table 17 to 19. The experiment was performed once again, this time with the following changes: • Dose range of 125 ppm-750 ppm was used. • Glass tubes containing 150 g of soil were used as opposed to PVC tubes in previous experiments.

## CC(C)=CCCC(C)=CC=O [Citral, citral]
Citrus nematodes; first experiment (Table 16), 62.5 ppm, 8 replicates
  Mean % killed: −2.84%
Citrus nematodes; first experiment (Table 16), 125 ppm, 8 replicates
  Mean % killed: 46.29%
Citrus nematodes; first experiment (Table 16), 250 ppm, 8 replicates
  Mean % killed: 91.66%
Citrus nematodes; first experiment (Table 16), 500 ppm, 8 replicates
  Mean % killed: 95.53%
Citrus nematodes; repeated protocol (Table 19), 500 ppm, N 10
  Mean % killed: 99.9%
Root Knot nematodes; first experiment (Table 15), soil, 62.5 ppm, 8 replicates
  Mean % killed: 18.87%
Root Knot nematodes; first experiment (Table 15), soil, 125 ppm, 8 replicates
  Mean % killed: 4.34%
Root Knot nematodes; first experiment (Table 15), soil, 250 ppm, 8 replicates
  Mean % killed: 23.66%
Root Knot nematodes; first experiment (Table 15), soil, 500 ppm, 8 replicates
  Mean % killed: 67.10%
Root Knot nematodes; repeated protocol (Table 18), soil, 500 ppm, N 10
  Mean % killed: 99.6%
Root Knot nematodes; third experiment (Table 20), glass tubes, 150 g of soil, 125 ppm, N 8
  Mean % killed: 74.51%
Root Knot nematodes; third experiment (Table 20), glass tubes, 150 g of soil, 250 ppm, N 8
  Mean % killed: 97.37%
Root Knot nematodes; third experiment (Table 20), glass tubes, 150 g of soil, 500 ppm, N 8
  Mean % killed: 100%
Root Knot nematodes; third experiment (Table 20), glass tubes, 150 g of soil, 750 ppm, N 8
  Mean % killed: 99.42%
